In patent US20230066011A1, “PYRROLOPYRIMIDINE DERIVATIVE, AND PHARMACEUTICAL COMPOSITION FOR PREVENTING OR TREATING PROTEIN KINASE-RELATED DISEASE COMPRISING SAME AS ACTIVE INGREDIENT” (VORONOI CO., LTD., priority 2019, published 2023):

Columns and labels:
Assay type in all cases: biochemical
human GST-DYRK1A = target: T1, human GST-DYRK1A (Homo sapiens, UniProt Q13627); assay: GST-DYRK1A enzyme inhibition, ADP-Glo kinase assay; conditions: ATP 10 μM, GST-DYRK1A full length, read-out: DYRK1 IC50
T1 construct: purified human GST-DYRK1A (full length, Thermo Scientifics) enzyme; purchased Thermo Scientifics
How it was run: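 Full-length enzyme (10 ng) was incubated with 10 μM ATP and a specific substrate for 1 h at 25 °C in 40 mM Tris-HCl pH 7.4, 20 mM MgCl2, 0.5 mg/mL BSA, 50 μM DTT. Luminescence was read against a solvent control, and IC50 values were derived from 3 data sets.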

human GST-CLK1 = target: T2, human GST-CLK1 (Homo sapiens, UniProt P49759); assay: GST-CLK1 enzyme inhibition, ADP-Glo kinase assay; conditions: ATP 10 μM, GST-CLK1 129-end
T2 construct: purified human GST-CLK1 (129-end, SignalChem) enzyme; purchased SignalChem
T2 sequence (P49759 129-484 limits assumed): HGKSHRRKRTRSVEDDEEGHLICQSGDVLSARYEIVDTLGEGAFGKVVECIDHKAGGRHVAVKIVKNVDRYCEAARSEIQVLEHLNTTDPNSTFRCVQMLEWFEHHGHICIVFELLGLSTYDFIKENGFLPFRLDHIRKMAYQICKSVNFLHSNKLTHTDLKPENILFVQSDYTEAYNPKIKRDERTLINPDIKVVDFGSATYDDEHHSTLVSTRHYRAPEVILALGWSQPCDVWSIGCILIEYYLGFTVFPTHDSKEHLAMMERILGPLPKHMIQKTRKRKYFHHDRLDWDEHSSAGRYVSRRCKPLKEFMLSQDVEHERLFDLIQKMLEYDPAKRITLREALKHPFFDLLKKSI
How it was run: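 ADP-Glo luminescence read-out, relative to untreated solvent control, gave IC50 (nM) from triplicate data sets. Reactions ran an hour at 25° C with 3 ng GST-CLK1 (residues 129-end), 10 μM ATP and specific substrate in Tris-HCl pH 7.4 buffer with MgCl2, BSA and DTT.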

LRRK2 (G2019S) = LRRK2 (G2019S) (Homo sapiens, UniProt Q5S007, G2019S); assay: LRRK2 G2019S enzyme inhibition, ADP-Glo kinase assay; design: purchased SignalChem L10-12GG; conditions: ATP 25 μM
Sequence of LRRK2 (G2019S) (Q5S007 970-2527 G2019S limits assumed): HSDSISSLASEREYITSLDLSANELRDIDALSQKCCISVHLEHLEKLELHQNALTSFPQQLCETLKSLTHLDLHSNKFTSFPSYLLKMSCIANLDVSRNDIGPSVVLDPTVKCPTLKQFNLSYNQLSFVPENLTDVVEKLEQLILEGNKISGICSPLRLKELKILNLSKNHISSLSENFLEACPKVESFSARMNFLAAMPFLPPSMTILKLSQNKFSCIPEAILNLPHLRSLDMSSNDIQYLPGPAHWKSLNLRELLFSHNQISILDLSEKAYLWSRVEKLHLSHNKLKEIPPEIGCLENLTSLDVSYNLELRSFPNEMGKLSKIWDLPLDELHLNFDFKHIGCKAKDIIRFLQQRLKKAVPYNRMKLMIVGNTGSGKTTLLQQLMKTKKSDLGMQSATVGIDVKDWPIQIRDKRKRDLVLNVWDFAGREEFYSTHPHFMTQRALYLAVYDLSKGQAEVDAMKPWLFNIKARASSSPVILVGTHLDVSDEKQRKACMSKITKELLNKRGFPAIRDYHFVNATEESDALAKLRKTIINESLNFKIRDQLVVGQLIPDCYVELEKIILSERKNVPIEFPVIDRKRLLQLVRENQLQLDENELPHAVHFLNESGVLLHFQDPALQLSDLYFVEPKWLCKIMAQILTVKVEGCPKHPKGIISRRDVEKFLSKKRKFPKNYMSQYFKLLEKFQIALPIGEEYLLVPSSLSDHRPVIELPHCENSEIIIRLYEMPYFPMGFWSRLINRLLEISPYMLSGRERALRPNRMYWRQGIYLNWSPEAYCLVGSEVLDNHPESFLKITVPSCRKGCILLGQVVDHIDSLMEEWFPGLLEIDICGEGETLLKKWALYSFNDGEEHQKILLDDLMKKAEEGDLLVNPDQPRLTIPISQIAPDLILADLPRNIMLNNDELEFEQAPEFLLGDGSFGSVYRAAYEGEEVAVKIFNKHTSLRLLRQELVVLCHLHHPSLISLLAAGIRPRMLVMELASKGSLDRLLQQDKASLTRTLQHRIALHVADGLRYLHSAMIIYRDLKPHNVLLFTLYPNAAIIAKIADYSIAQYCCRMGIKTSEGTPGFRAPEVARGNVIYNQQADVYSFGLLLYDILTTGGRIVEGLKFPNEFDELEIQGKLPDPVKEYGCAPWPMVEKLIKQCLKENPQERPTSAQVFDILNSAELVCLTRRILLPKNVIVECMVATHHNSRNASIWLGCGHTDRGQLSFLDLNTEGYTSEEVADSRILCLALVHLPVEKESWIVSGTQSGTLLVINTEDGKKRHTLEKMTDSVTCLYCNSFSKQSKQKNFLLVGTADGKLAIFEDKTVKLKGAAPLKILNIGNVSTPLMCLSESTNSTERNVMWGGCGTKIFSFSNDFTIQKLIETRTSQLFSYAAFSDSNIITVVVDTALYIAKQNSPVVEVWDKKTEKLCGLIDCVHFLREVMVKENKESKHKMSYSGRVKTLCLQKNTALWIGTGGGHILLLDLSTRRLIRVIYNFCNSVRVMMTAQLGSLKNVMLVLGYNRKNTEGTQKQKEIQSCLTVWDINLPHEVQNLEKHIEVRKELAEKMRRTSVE
How it was run: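 IC50 derived from luminescent ADP-Glo readout against untreated solvent control, twelve final compound concentrations from 50 μM downward. Reaction: recombinant human LRRK2 G2019S enzyme, 25 μM ATP, substrate, pH 7.4 Tris buffer with MgCl2/BSA/DTT, 25° C. for 2 hours.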

SMILES | IC50 (human GST-DYRK1A) [nM] | IC50 (human GST-CLK1) [nM] | IC50 (LRRK2 (G2019S)) [nM]
CCNc1nc(Nc2ccc(P3(=O)CCN(Cc4ccc(OC)cc4OC)CC3)cn2)nc2[nH]cc(C(F)(F)F)c12 [Example 153, 1-(2,4-dimethoxybenzyl)-4-(6-((4-(ethylamino)-5-(trifluoromethyl)-7H-pyrrolo[2,3-d]pyrimidin-2-yl)amino)pyridin-3-yl)-1,4-azaphosphinane 4-oxide] | < 100 | < 100 | < 100
COc1cc(S(=O)(=O)N2CCC(N3CCOCC3)CC2)ccc1Nc1nc(NC2CC2)c2cc[nH]c2n1 [Example 54, N^4-cyclopropyl-N^2-(2-methoxy-4-((4-morpholinopiperidin-1-yl)sulfonyl)phenyl)-7H-pyrrolo[2,3-d]pyrimidine-2,4-diamine] | 301 to 1000 | 301 to 1000 | < 100
COc1cc(S(C)(=O)=O)ccc1Nc1nc(NC2CCOCC2)c2cc[nH]c2n1 [Example 30, N^2-(2-methoxy-4-(methylsulfonyl)phenyl)-N^4-(tetrahydro-2H-pyran-4-yl)-7H-pyrrolo[2,3-d]pyrimidine-2,4-diamine 2,2,2-trifluoroacetate] | 301 to 1000 | 301 to 1000 | < 100
CNc1nc(Nc2ccc(S(=O)(=O)N3CCOCC3)cc2OC)nc2[nH]ccc12 [Example 2, N^2-(2-methoxy-4-(morpholinosulfonyl)phenyl)-N^4-methyl-7H-pyrrolo[2,3-d]pyrimidine-2,4-diamine 2,2,2-trifluoroacetate] | 301 to 1000 | 301 to 1000 | < 100
COc1cc(S(=O)(=O)N2CCOCC2)ccc1Nc1nc(NCC2CCC2)c2cc[nH]c2n1 [Example 37, N^4-(cyclobutylmethyl)-N^2-(2-methoxy-4-(morpholinosulfonyl)phenyl)-7H-pyrrolo[2,3-d]pyrimidine-2,4-diamine] | 301 to 1000 | 301 to 1000 | < 100
COc1cc(S(=O)(=O)N2CCOCC2)ccc1Nc1nc(NC2CCOCC2)c2c(C#N)c[nH]c2n1 [Example 76, 2-((2-methoxy-4-(morpholinosulfonyl)phenyl)amino)-4-((tetrahydro-2H-pyran-4-yl)amino)-7H-pyrrolo[2,3-d]pyrimidine-5-carbonitrile] | 301 to 1000 | 301 to 1000 | < 100
COc1cc(S(C)(=O)=O)ccc1Nc1nc(N[C@H]2CCOC2)c2c(C(F)(F)F)c[nH]c2n1 [Example 384, (S)-N^2-(2-methoxy-4-(methylsulfonyl)phenyl)-N^4-(tetrahydrofuran-3-yl)-5-(trifluoromethyl)-7H-pyrrolo[2,3-d]pyrimidine-2,4-diamine] | 301 to 1000 | < 100 | < 100
COc1cc(S(C)(=O)=O)ccc1Nc1nc(NC2CCCC2)c2cc[nH]c2n1 [Example 1, N^4-cyclopentyl-N^2-(2-methoxy-4-(methylsulfonyl)phenyl)-7H-pyrrolo[2,3-d]pyrimidine-2,4-diamine] | 301 to 1000 | 301 to 1000 | < 100
COc1cc(P(C)(C)=O)ccc1Nc1nc(NC2CCCC2)c2c(C(F)(F)F)c[nH]c2n1 [Example 387, (4-((4-(cyclo-pentylamino)-5-(trifluoromethyl)-7H-pyrrolo[2,3-d]pyrimidin-2-yl)amino)-3-methoxy-phenyl)di-methylphosphine oxide] | 301 to 1000 | 301 to 1000 | < 100
COc1cc(S(C)(=O)=O)ccc1Nc1nc(NC(C)C)c2cc[nH]c2n1 [Example 14, N^4-isopropyl-N^2-(2-methoxy-4-(methylsulfonyl)phenyl)-7H-pyrrolo[2,3-d]pyrimidine-2,4-diamine 2,2,2-trifluoroacetate] | 301 to 1000 | 301 to 1000 | < 100
CS(=O)(=O)CCNc1nc(Nc2ccc(C(=O)N3CCN(C4COC4)CC3)c3c2OCCO3)nc2[nH]cc(C(F)(F)F)c12 [Example 427, (8-((4-((2-(methylsulfonyl)ethyl)amino)-5-(trifluoromethyl)-7H-pyrrolo[2,3-d]pyrimidin-2-yl)amino)-2,3-dihydrobenzo[b] [1,4]dioxin-5-yl) (4-(oxetan-3-yl)piperazin-1-yl)methanone] | < 100 | < 100 | < 100
O=C(c1ccc(Nc2nc(N[C@H]3CCOC3)c3c(C(F)(F)F)c[nH]c3n2)c2c1CCO2)N1CCOCC1 [Example 455] | < 100 | < 100 | < 100
COc1cc(S(C)(=O)=O)ccc1Nc1nc(NC2CCCCC2)c2cc[nH]c2n1 [Example 27, N^4-cyclohexyl-N^2-(2-methoxy-4-(methylsulfonyl)phenyl)-7H-pyrrolo[2,3-d]pyrimidine-2,4-diamine 2,2,2-trifluoroacetate] | 301 to 1000 | 301 to 1000 | < 100
CS(=O)(=O)CCNc1nc(Nc2ccc(C(=O)N3CCC(N4CCOCC4)CC3)c3c2OCC3)nc2[nH]cc(C#N)c12 [Example 345, 4-((2-(methyl-sulfonyl)eth-yl)amino)-2-((4-(4-morpholino-piperidine-1-carbonyl)-2,3-dihydro-benzofuran-7-yl)amino)-7H-pyrrolo[2,3-d]pyrimidine-5-carbonitrile] | 301 to 1000 | < 100 | < 100
O=C(c1ccc(Nc2nc(NC3CCCC3)c3c(C(F)(F)F)c[nH]c3n2)c2c1CCO2)N1CCC(N2CCOCC2)CC1 [Example 459, (7-((4-(cyclo-pentylamino)-5-(trifluoromethyl)-7H-pyrrolo[2,3-d]pyrimidin-2-yl)amino)-2,3-dihydrobenzo-furan-4-yl)(4-morpho-linopiperidin-1-yl)methanone] | 301 to 1000 | 301 to 1000 | < 100
COc1cc(S(C)(=O)=O)ccc1Nc1nc(NC2CCC2)c2cc[nH]c2n1 [Example 24, N^4-cyclobutyl-N^2-(2-methoxy-4-(methylsulfonyl)phenyl)-7H-pyrrolo[2,3-d]pyrimidine-2,4-diamine] | 301 to 1000 | 301 to 1000 | < 100
N#Cc1c[nH]c2nc(Nc3ccc(C(=O)N4CCN(C5COC5)CC4)c4c3OCCO4)nc(NC3CCC3)c12 [Example 289, 4-(cyclo-butylamino)-2-((8-(4-(oxetan-3-yl)piperazine-1-carbonyl)-2,3-dihydrobenzo[b] [1,4]dioxin-5-yl)amino)-7H-pyrrolo[2,3-d]pyrimidine-5-carbonitrile] | 301 to 1000 | < 100 | < 100
CC(C)Nc1nc(Nc2ccc(C(=O)N3CCOCC3)c3c2OCC3)nc2[nH]cc(C(F)(F)F)c12 [Example 449, (7-((4-(isopropylamino)-5-(trifluoromethyl)-7H-pyrrolo[2,3-d]pyrimidin-2-yl)amino)-2,3-dihydrobenzo-furan-4-yl) (morpholino) methanone] | 301 to 1000 | < 100 | < 100
O=C(c1ccc(Nc2nc(NC3CCCCC3)c3cc[nH]c3n2)c2c1OCCO2)N1CCOCC1 [Example 49, (8-((4-(cyclohexylamino)-7H-pyrrolo[2,3-d]pyrimidin-2-yl)amino)-2,3-dihydrobenzo[b][1,4]dioxin-5-yl)(morpholino)methanone 2,2,2-trifluoroacetate] | 301 to 1000 | 301 to 1000 | < 100
